Source: paper doi:10.1101/2022.03.28.485913v1, “A unified in vitro to in vivo fluorescence lifetime screening platform yields amyloid β aggregation inhibitors” (biorxiv, 2022)

Key:
amyloid β (1-42) (Aβ42) [1] = biological target: T1, amyloid β (1-42) (Aβ42) (Homo sapiens, UniProt P05067); assay: nanoFLIM aggregation assay, TEM; type: biochemical; settings: 10 μM Aβ42-488, 50% labelled, 10 or 50 μM compound; ThT assay masked by compound fluorescence
T1 construct: gene APP; Amyloid-beta 1-42 peptide cut from APP, 42 residues; synthetic, unlabelled or partly mixed with N-terminally HiLyte Fluor 488 labelled peptide; recombinant 15N peptide (AlexoTech) for NMR; aggregating, starting from monomer

amyloid β (1-42) (Aβ42) [2] = biological target: T1, amyloid β (1-42) (Aβ42); assay: nanoFLIM aggregation kinetics, fluorescence lifetime in microfluidic droplets, initial rates; type: biochemical

T1 sequence (P05067 672-713): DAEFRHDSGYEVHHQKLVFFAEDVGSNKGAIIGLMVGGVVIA

Structure (SMILES) | nanoFLIM aggregation assay, TEM (amyloid β (1-42) (Aβ42) [1]) | IC50 (amyloid β (1-42) (Aβ42) [2])
COC(=O)c1ccccc1NC(=O)c1cc(-c2ccccc2)nc2ccccc12 [MJ001] | MJ001 and MJ042 (Fig. 2a,b), showed weaker, yet significant inhibitory activity | –
O=C(O)c1cc(-c2cc(F)cc(Cl)c2)nc2ccccc12 [MJ042] | MJ001 and MJ042 (Fig. 2a,b), showed weaker, yet significant inhibitory activity | –
O=C(O)c1cc(-c2cccc(Br)c2)nc2ccc([N+](=O)[O-])cc12 [MJ040] | – | 4.3 ± 1.3 µM
